Results from patent US20230053688A1, “METHODS TO ALTER LATENCY IN EBV+ MALIGNANCIES” (Cornell University, priority 2020, published 2023).
Structures can show the parent of a compound that is named as a salt. Where two headings read alike, the source gives them in different places.

System: LMP1 expression in Kem I cells
Test: microbe, parasite or virus in culture
Type: cell-based, EBV
Conditions: for fold induction at 2.5 µM: human gammaherpesvirus 4, 48 h; for Average LMP1 Fold Increase / Replicate 1-LMP1 Fold Increase / Replicate 2-LMP1 Fold Increase: Kem I cells, 48 hours
[1] = read-out: Average LMP1 Fold Increase, Kem I cells, 2.5 uM, 48 hours, average of replicates 1 and 2
[2] = read-out: Replicate 1-LMP1 Fold Increase, Kem I cells, 2.5 uM, 48 hours, fold change in LMP1 transcript vs vehicle
[3] = read-out: Replicate 2-LMP1 Fold Increase, Kem I cells, 2.5 uM, 48 hours, fold change in LMP1 transcript vs vehicle
[4] = 2.5 uM, average of replicates 1 and 2
[5] = 2.5 uM, fold change in LMP1 transcript vs vehicle
[6] = dose 2.5 uM, LMP1 transcript by in-well qRT-PCR, average of the two replicates
[7] = dose 2.5 uM, LMP1 transcript by in-well qRT-PCR, screen replicate 1
[8] = dose 2.5 uM, LMP1 transcript by in-well qRT-PCR, screen replicate 2

Row | SMILES | fold induction at 2.5 µM [1] | fold induction at 2.5 µM [2] | fold induction at 2.5 µM [3] | Average LMP1 Fold Increase [4] | Replicate 1-LMP1 Fold Increase [5] | Replicate 2-LMP1 Fold Increase [5] | other results
1 | CC#CCn1c(N2CCC[C@@H](N)C2)nc2c1c(=O)n(Cc1nc(C)c3ccccc3n1)c(=O)n2C [Linagliptin] | 0.91 | 1.01 | 0.81 | – | – | – | –
2 | NC(=O)N1c2ccccc2CC(=O)c2ccccc21 [Oxcarbazepine] | 0.46 | 0.54 | 0.38 | – | – | – | –
3 | CCN(CC)C(=O)/C(C#N)=C/c1cc(O)c(O)c([N+](=O)[O-])c1 [Entacapone] | 0.6 | 0.49 | 0.71 | – | – | – | –
4 | CNC(=C[N+](=O)[O-])NCCSCc1ccc(CN(C)C)o1 [Ranitidine] | 1.04 | 0.9 | 1.18 | – | – | – | –
5 | Oc1nc(-c2ccc(C(F)(F)F)cc2)nc2c1CSCC2 [XAV-939] | – | – | – | – | – | – | fold induction at 2.5 µM (read-out: Average LMP1 Fold Increase, Kem I cells, dose 2.5 uM, 48 hours, LMP1 transcript by in-well qRT-PCR, average of the two replicates): 0.73; fold induction at 2.5 µM (read-out: Replicate 1-LMP1 Fold Increase, Kem I cells, dose 2.5 uM, 48 hours, LMP1 transcript by in-well qRT-PCR, screen replicate 1): 0.73; fold induction at 2.5 µM (read-out: Replicate 2-LMP1 Fold Increase, Kem I cells, dose 2.5 uM, 48 hours, LMP1 transcript by in-well qRT-PCR, screen replicate 2): 0.73
6 | C[C@H](Oc1cc(-c2cnn(C3CCNCC3)c2)cnc1N)c1c(Cl)ccc(F)c1Cl [(S)-crizotinib] | – | – | – | 0.70 | 0.57 | 0.84 | –
7 | CC(C)(C)c1cc(NC(=O)Nc2ccc(-c3cn4c(n3)sc3cc(OCCN5CCOCC5)ccc34)cc2)no1 [Quizartinib (AC220)] | – | – | – | 0.93 | 0.71 | 1.15 | –
8 | CCOc1nc2cccc(C(=O)O)c2n1Cc1ccc(-c2ccccc2-c2nnn[nH]2)cc1 [Candesartan] | 0.43 | 0.34 | 0.52 | – | – | – | –
9 | COc1cc(OC)c(/C=C/S(=O)(=O)Cc2ccc(OC)c(NCC(=O)O)c2)c(OC)c1 [Rigosertib (ON-01910)] | – | – | – | 0.57 | 0.69 | 0.46 | –
10 | COc1cc2c(cc1OC)[C@@H]1Cc3ccc(OC)c(OC)c3CN1CC2 [Rotundine] | 0.28 | 0.3 | 0.27 | – | – | – | –
11 | O=[N+]([O-])C=Cc1ccc2c(c1)OCO2 | – | – | – | 1.11 | 0.54 | 1.68 | –
12 | O=C(Nc1ccccc1-c1cn2c(CN3CCNCC3)csc2n1)c1cnc2ccccc2n1 [SRT1720] | – | – | – | 0.64 | 0.58 | 0.70 | –
13 | Oc1ncnc2[nH]ncc12 [Allopurinol] | 0.11 | 0.09 | 0.13 | – | – | – | –
14 | CN[C@H]1CC[C@@H](c2ccc(Cl)c(Cl)c2)c2ccccc21 [Sertraline HCl] | 1.07 | 0.81 | 1.33 | – | – | – | –
15 | CC(NC(=O)c1ccccc1/N=C/c1c(O)ccc2ccccc12)c1ccccc1 (stereo not drawn) [Sirtinol] | 0.6 | 0.28 | 0.92 | – | – | – | –
16 | Cc1ccc(NCCCc2ccccc2)c(N)c1 [JSH-23] | – | – | – | 0.77 | 0.86 | 0.69 | –
17 | C[C@H](N[C@@H](CCc1ccccc1)C(=O)O)C(=O)N1CCC[C@H]1C(=O)O.O.O [Enalaprilat Dihydrate] | – | – | – | 0.51 | 0.51 | 0.52 | –
18 | CCOc1ccc(Cc2cc([C@@H]3O[C@H](CO)[C@@H](O)[C@H](O)[C@H]3O)ccc2Cl)cc1 [Dapagliflozin] | 1.01 | 0.69 | 1.34 | – | – | – | –

Row | SMILES | fold induction at 2.5 µM [1] | fold induction at 2.5 µM [2] | fold induction at 2.5 µM [3] | Average LMP1 Fold Increase [4] | Replicate 1-LMP1 Fold Increase [5] | Replicate 2-LMP1 Fold Increase [5] | other results
19 | O=C(NCc1ccccc1)c1csc(Nc2ccncn2)n1 [Thiazovivin] | – | – | – | – | – | – | Average LMP1 Fold Increase [6]: 1.05 fold; Replicate 1-LMP1 Fold Increase [7]: 1.05 fold; Replicate 2-LMP1 Fold Increase [8]: 1.04 fold
20 | CCN[C@H]1CN(CCCOC)S(=O)(=O)c2sc(S(N)(=O)=O)cc21 [Brinzolamide] | 0.21 | 0.23 | 0.2 | – | – | – | –
21 | O=C(Nc1cccnc1)N1CCC(Cc2cccc(Oc3ccc(C(F)(F)F)cn3)c2)CC1 [PF-3845] | – | – | – | 0.32 | 0.16 | 0.48 | –
22 | O=S(=O)(c1ccccc1)c1cnc2c(N3CCNCC3)cccc2c1 [SB742457] | – | – | – | 0.82 | 1.09 | 0.55 | –
23 | N#C[C@@H]1CCCN1C(=O)CNC12CC3CC(CC(O)(C3)C1)C2 [Vildagliptin (LAF-237)] | – | – | – | – | – | – | Average LMP1 Fold Increase [6]: 0.72 fold; Replicate 1-LMP1 Fold Increase [7]: 0.58 fold; Replicate 2-LMP1 Fold Increase [8]: 0.87 fold
24 | CN(C)C(=O)[C@H](O)[C@H](Cc1ccccc1)NC(=O)c1cc2cc(Cl)ccc2[nH]1 [CP-91149] | – | – | – | 0.64 | 0.49 | 0.80 | –
25 | CCOC(=O)C1=C(C)NC(C)=C(C(=O)OC)C1c1cccc(Cl)c1Cl (stereo not drawn) [Felodipine] | 0.77 | 0.84 | 0.69 | – | – | – | –
26 | CCc1nc(N)nc(N)c1-c1ccc(Cl)cc1 [Pyrimethamine] | 0.8 | 0.7 | 0.9 | – | – | – | –
27 | Nc1nc(OCc2cc(Br)cs2)c2[nH]cnc2n1 [Lomeguatrib] | 1.09 | 0.57 | 1.61 | – | – | – | –
28 | CC(C)CCN1c2nc(Nc3cc(F)c(O)c(F)c3)ncc2N(C)C(=O)C1C (stereo not drawn) [BI-D1870] | – | – | – | 0.50 | 0.47 | 0.52 | –
29 | Cc1cccc(-c2nn3c(c2-c2ccnc4ccc(C(N)=O)cc24)CCC3)n1 [LY2157299] | – | – | – | 0.30 | 0.30 | 0.30 | –
30 | Cc1ccc([C@@H]2O[C@H](CO)[C@@H](O)[C@H](O)[C@H]2O)cc1Cc1ccc(-c2ccc(F)cc2)s1 [Canagliflozin] | – | – | – | 0.63 | 0.52 | 0.75 | –
31 | CC(C)N(CCCNC(=O)Nc1ccc(C(C)(C)C)cc1)C[C@H]1O[C@@H](n2cc(Br)c3c(N)ncnc32)[C@H](O)[C@@H]1O [SGC 0946] | 0.29 | 0.26 | 0.31 | – | – | – | –
32 | C[C@H]1COC2(CCN(c3nc(=O)c4cc(C(F)(F)F)cc([N+](=O)[O-])c4s3)CC2)O1 (racemic) [BTZ043 Racemate] | – | – | – | 0.64 | 0.62 | 0.67 | –
33 | Nc1cccc2c1C(=O)N(C1CCC(=O)NC1=O)C2=O (stereo not drawn) [Pomalidomide] | 5.8 | 3.72 | 7.87 | – | – | – | –
34 | C#CCC(Cc1cnc2nc(N)nc(N)c2n1)c1ccc(C(=O)N[C@@H](CCC(=O)O)C(=O)O)cc1 (stereo partly drawn) [Pralatrexate] | 3.49 | 3.95 | 3.02 | – | – | – | –
35 | COc1ccc2cc(-c3nc(-c4ccc([S+](C)[O-])cc4)[nH]c3-c3ccncc3)ccc2c1 (stereo not drawn) [Tie2 kinase inhibitor] | – | – | – | – | – | – | Average LMP1 Fold Increase [6]: 1.08 fold; Replicate 1-LMP1 Fold Increase [7]: 0.36 fold; Replicate 2-LMP1 Fold Increase [8]: 1.81 fold
36 | O=C(O)c1ccc(Nc2ncc3c(n2)-c2ccc(Cl)cc2C(c2c(F)cccc2F)=NC3)cc1 [MLN8054] | 0.37 | 0.27 | 0.47 | – | – | – | –
